One assay deals with T1, RIM2 d1 (Homo sapiens, UniProt Q9UQ26).
T1 construct: made in house; host or cells: E. coli (DH5α, BL21 or JM109)
T1 sequence (Q9UQ26 632-757): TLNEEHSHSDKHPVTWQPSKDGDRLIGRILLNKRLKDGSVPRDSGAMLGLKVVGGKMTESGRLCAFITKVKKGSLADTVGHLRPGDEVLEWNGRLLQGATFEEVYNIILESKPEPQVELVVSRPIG
In words: G assays, titrations or binding assays of peptides. To be noted: peptide demonstrated to bind RIM2 d1 in G assays.

The target in assay [1] is T2, INADL d3 (Homo sapiens, UniProt Q8NI35).
T2 construct: made in house; host or cells: E. coli (DH5α, BL21 or JM109)
T2 sequence (Q8NI35 with tags, fused parts or gaps): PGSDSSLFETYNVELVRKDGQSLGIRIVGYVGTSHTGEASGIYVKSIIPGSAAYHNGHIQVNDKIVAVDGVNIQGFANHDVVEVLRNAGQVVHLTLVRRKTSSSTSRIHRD
In words: G3 assay, binding of biotinylated peptide to GST-PDZ fusion. To be noted: G3 titration. The procedure:
(§1) The G3 assay is identical to the G0 assay with the following exceptions. The peptides are typically present at 0.1 μM rather than 20 μM. The peptides are also pre-incubated with the HRP-streptavidin prior to adding to the assay plate. In the G0 assay, free peptide is incubated with the PDZ proteins prior to the addition of the HRP-streptavidin. Thus, for the G0 assay one can lose signal if the bound peptide dissociates from the PDZ protein prior to the addition of the HRP-streptavidin. In the G3 modified assay the HRP-streptavidin/peptide complex is added to the plate in one step, thus increasing the likelihood that all the bound peptide will be bound to HRP-streptavidin. The G3 modified assay increases the chance of observing weak interaactions.
(§2) Reagents and Supplies • Nunc MaxiSorp 96 well Immuno-plate, Nunc • PBS pH 7.4 (phosphate buffered saline, 8 g NaCl, 0.29 g KCl, 1.44 g Na2HPO4, 0.24 g KH2PO4, add H2O to 1 liter and pH 7.4; 0.2 μm filter) • Assay Buffer: 2% BSA in PBS (20 g of bovine serum albumin per liter PBS, fraction V, ICN Biomedicals, cat#IC15142983 • Goat anti-GST polyclonal Ab, stock 5 mg/ml, stored at 4° C., Amersham Pharmacia cat#27-4577-01 • Dilute 1:1000 in PBS, final concentration 5 μg/ml. • HRP-Streptavidin, 2.5 mg/2 ml stock stored at 4° C., Zymed cat#43-4323, dilute 1:2000 into Assay buffer, final concentration of 0.5 μg/ml • Wash Buffer, PBS • Biotinylated peptides (HPLC purified, stock solution stored in −20° C. freezer) • GST-PRISM proteins (stock stored at −80° C., after 1st thaw store in −10° C. freezer) • TMB (3,3′,5,5′, teramethylbensidine), tablets, Sigma cat.#T5525 • Per plate, dissolve 1 tablet in 1 ml DMSO, add 9 ml Citrate/Phosphate buffer pH 5.4 and 2 μL H2O2 • 0.18M H2SO4, Sigma cat.#S 1526 • 12-w multichannel pipettor & tips • 50 ml reagent reservoirs, Costar#4870 • 50, 15 ml polypropylene conical tubes • Costar Transtar 96 Costar #7605 • Transtar 96 Cartridge Costar #7610 • Molecular Devices microplate reader (450 & 650 nm filters) with SoftMax Pro software • When using reagents stored at or 4° C. or −20° C., remove & keep on ice
(§3) Protocol • 1. Coat plate with 100 μl of 5 μg/ml anti-GST, overnight at 4° C. • 2. Dump contents of plate & out tap dry on paper towels • 3. Block with 200 μl Assay Buffer for 2 hrs at room temperature • 4. Prepare proteins at 5 μg/ml in Assay Buffer • 5. Wash 3× with cold PBS (4° C.), avoiding letting the plates dry out • 6. Add proteins at 50 μl per well, incubate 1 to 2 hrs at 4° C. • 7. Prepare peptides to desired concentration in Assay Buffer • 8. Wash 3× with cold PBS (4° C.), avoiding letting the plates dry out • 9. Add HRP-Streptavidin/peptide complex [prepared by incubating for 20 minutes at room temperature HRP-Streptavidin (1:2000) with the desired biotin-peptide concentration for 20 minutes at room temperature] at 50 μl per well on ice • 10. Place at room temperature for exactly 30 minutes • 11. Promptly wash 5× with PBS at room temperature • 12. Add 100 μl/well TMB substrate (write time on plate) • 13. Incubate in dark at room temperature for a maximum of 30 minutes • 14. Read plate at 25 minutes (650 nm), optional • 15. Stop reaction with 100 μl of 0.18 M H2SO4, 30 minutes after adding TMB Take last reading at 450 nm soon after stopping reaction
(§4) The G3 assay was performed using 0.1 μM peptide representing 11 amino acids of Tat fused to the final 9 amino acids of TRPM7 ([…]; SEQ ID NO:258).
(§5) The G3 assay was performed on a subset of the PDZ domains as in Example II except that the concentration of peptide was 0.002 μM, […], 0.1 μM, 0.2 μM, 1 μM, and 2 μM.
(§6) to calculate the EC50 for the binding of the peptides to the PDZ domains.
(§7) FIGS. 10A and 10B show graphs of the titrations for the Peptide #1829 with ZO-1 d2 and for the Peptide #1839 with INADL d3.

The target of assay [2] is T3, ZO-1 d2 (Homo sapiens, UniProt Q07157, DEL264-264).
T3 construct: made in house; host or cells: E. coli (DH5α, BL21 or JM109)
T3 sequence (Q07157 with tags, fused parts or gaps DEL264-264): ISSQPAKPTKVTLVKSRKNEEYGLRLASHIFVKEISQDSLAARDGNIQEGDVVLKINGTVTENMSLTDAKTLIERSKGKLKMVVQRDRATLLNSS
Described as above. To be noted: G3 titration. The procedure: as §1, §2, §3, §4, §5, §6, §7

Assay [3] has as its target T3, ZO-1 d2. Put plainly: G assays, titrations or binding assays of peptides. The note with it: peptide demonstrated to bind ZO-1 d2 in G assays.
Experimental: (§8) In one aspect, the invention provides an assay in which a GST/PDZ fusion protein is immobilized on a surface (G assay). […] In a preferred embodiment, the assay is carried out as follows:
(§9) (1) A PDZ-domain polypeptide is bound to a surface, e.g. a protein binding surface. In a preferred embodiment, a GST/PDZ fusion protein containing one or more PDZ domains is bound to a polystyrene 96-well plate. […] In one embodiment, the GST/PDZ fusion protein is bound via an anti-GST antibody that is coated onto the 96-well plate. Adequate binding to the plate can be achieved when: • a. 100 μl per well of 5 μg/ml goat anti-GST polyclonal antibody (Pierce) in PBS is added to a polystyrene 96-well plate (e.g., Nunc Polysorp) at 4° C. for 12 hours. • b. The plate is blocked by addition of 200 μl per well of PBS/BSA for 2 hours at 4° C. • c. The plate is washed 3 times with PBS. • d. 50 μl per well of 5 μg/ml GST/PDZ fusion protein) or, as a negative control, GST polypeptide alone (i.e. not a fusion protein) in PBS/BSA is added to the plate for 2 hours at 4° C. • e. the plate is again washed 3 times with PBS.
(§10) (2) Biotinylated PL peptides are allowed to react with the surface by addition of 50 μl per well of 20 μM solution of the biotinylated peptide in PBS/BSA for 10 minutes at 4° C., followed by an additional 20 minute incubation at 25° C. The plate is washed 3 times with ice cold PBS.
(§11) (3) The binding of the biotinylated peptide to the GST/PDZ fusion protein surface can be detected using a variety of methods and detectors known to one of skill in the art. In one embodiment, 100 μl per well of 0.5 μg/ml streptavidin-horseradish peroxidase (HRP) conjugate dissolved in BSA/PBS is added and allowed to react for 20 minutes at 4° C. The plate is then washed 5 times with 50 mM Tris pH 8.0 containing 0.2% Tween 20, and developed by addition of 100 μl per well of HRP-substrate solution (TMB, Dako) for 20 minutes at room temperature (RT). The reaction of the HRP and its substrate is terminated by addition of 100 μl per well of 1 M sulfuric acid, and the optical density (O.D.) of each well of the plate is read at 450 um.
(§12) (4) Specific binding of a PL peptide and a PDZ domain polypeptide is determined by comparing the signal from the well(s) in which the PL peptide and PDZ domain polypeptide are combined, with the background signal(s). […] Typically a specific or selective reaction will be at least twice background signal, more typically more than 5 times background, and most typically 10 or more times the background signal. […] Correspondingly, a statistical test (e.g. a T-test) comparing repeated measurements of the signal with repeated measurements of the background will result in a p-value <0.05, more typically a p-value <0.01, and most typically a p-value <0.001 or less. As noted, in an embodiment of the G assay, the signal from binding of a given PL peptide to immobilized (surface bound) GST polypeptide alone is one suitable negative control (sometimes referred to as B1). Because all measurement are done in multiples (i.e. at least duplicate) the arithmetic mean (or, equivalently, average.) of several measurements is used in determining the binding, and the standard error of the mean is used in determining the probable error in the measurement of the binding. The standard error of the mean of N measurements equals the square root of the following: the sum of the squares of the difference between each measurement and the mean, divided by the product of (N) and (N−1). Thus, in one embodiment, specific binding of the PDZ protein to the platebound peptide is determined by comparing the mean signal (“mean S”) and standard error of the signal (“SE”) for a particular PL-PDZ combination with the mean B1.
Assay [4] concerns the target T2, INADL d3. Put plainly: G assays, titrations or binding assays of peptides. To be noted: peptide demonstrated to bind INADL d3 in G assays.
Experimental: as §8, §9, §10, §11, §12

Residues, ends and D or L forms follow the SMILES beside them. No end group written: not given here. *: point of attachment. Biotin = O=C1N[C@H]2[C@H](CS[C@H]2CCCCC(=O)*)N1

Experimental for RIM2 d1: as §8, §9, §10, §11, §12

`CC[C@H](C)[C@H](NC(=O)[C@@H](NC(=O)[C@H](CCCNC(=N)N)NC(=O)[C@H](CC(=O)O)NC(=O)[C@H](CO)NC(=O)[C@H](CCCNC(=N)N)NC(=O)[C@H](C)NC(=O)[C@H](CCCNC(=N)N)NC(=O)[C@H](CCCNC(=N)N)NC(=O)[C@H](CCCNC(=N)N)NC(=O)[C@H](CCC(N)=O)NC(=O)[C@H](CCCNC(=N)N)NC(=O)[C@H](CCCNC(=N)N)NC(=O)[C@H](CCCCN)NC(=O)[C@H](CCCCN)NC(=O)[C@H](CCCNC(=N)N)NC(=O)CNC(=O)[C@H](Cc1ccc(O)cc1)NC(=O)CCCC[C@@H]1SC[C@@H]2NC(=O)N[C@@H]21)[C@@H](C)O)C(=O)N[C@@H](Cc1c[nH]c2ccccc12)C(=O)N[C@@H](C)C(=O)O` [Peptide 1829] (Biotin-YGRKKRRQRRRARSDRTIWA-OH; C-terminus assumed): the results for the POZ domain bound result on RIM2 d1, on ZO-1 d2 [3] and at INADL d3 [4] were “RIM2 D1”, “ZO-1 D2” and “INADL D3”, respectively. For the same compound, the figures for the “ODmax (450 nm)” value on INADL d3 [1] and on ZO-1 d2 [2] were 1.40 and 2.90, respectively.
On to `C[C@H](NC(=O)[C@H](Cc1c[nH]c2ccccc12)NC(=O)[C@H](Cc1ccc(O)cc1)NC(=O)[C@H](CCCCN)NC(=O)[C@H](CCCNC(=N)N)NC(=O)[C@H](CC(=O)O)NC(=O)[C@@H](NC(=O)[C@H](CCCNC(=N)N)NC(=O)[C@H](CO)NC(=O)[C@H](CCCNC(=N)N)NC(=O)[C@H](CCCNC(=N)N)NC(=O)[C@H](CCCNC(=N)N)NC(=O)[C@H](CCC(N)=O)NC(=O)[C@H](CCCNC(=N)N)NC(=O)[C@H](CCCNC(=N)N)NC(=O)[C@H](CCCCN)NC(=O)[C@H](CCCCN)NC(=O)[C@H](CCCNC(=N)N)NC(=O)CNC(=O)[C@H](Cc1ccc(O)cc1)NC(=O)CCCC[C@@H]1SC[C@@H]2NC(=O)N[C@@H]21)[C@@H](C)O)C(=O)O` [Peptide 1832] (Biotin-YGRKKRRQRRRSRTDRKYWA-OH; C-terminus assumed), for which the values for the POZ domain bound result at RIM2 d1, on ZO-1 d2 [3] and on INADL d3 [4] were “RIM2 D1”, “ZO-1 D2” and “INADL D3”, respectively. The figures for the “ODmax (450 nm)” value at INADL d3 [1] and at ZO-1 d2 [2] were 0.60 and 2.10, respectively.
For `CC[C@H](C)[C@H](NC(=O)[C@H](CCC(N)=O)NC(=O)[C@H](Cc1ccc(O)cc1)NC(=O)[C@H](CCCCN)NC(=O)[C@H](CCCNC(=N)N)NC(=O)[C@H](CC(=O)O)NC(=O)[C@@H](NC(=O)[C@H](CCCNC(=N)N)NC(=O)[C@H](CO)NC(=O)[C@H](CCCNC(=N)N)NC(=O)[C@H](CCCNC(=N)N)NC(=O)[C@H](CCCNC(=N)N)NC(=O)[C@H](CCC(N)=O)NC(=O)[C@H](CCCNC(=N)N)NC(=O)[C@H](CCCNC(=N)N)NC(=O)[C@H](CCCCN)NC(=O)[C@H](CCCCN)NC(=O)[C@H](CCCNC(=N)N)NC(=O)CNC(=O)[C@H](Cc1ccc(O)cc1)NC(=O)CCCC[C@@H]1SC[C@@H]2NC(=O)N[C@@H]21)[C@@H](C)O)C(=O)O` [Peptide 1839] (Biotin-YGRKKRRQRRRSRTDRKYQI-OH; C-terminus assumed), the POZ domain bound result is on record as “RIM2 D1” at RIM2 d1 and “INADL D3” on INADL d3 [4]. Further, the “ODmax (450 nm)” value on INADL d3 [1] was 1.60; on ZO-1 d2 [2], 2.50.
`CC[C@H](C)[C@H](NC(=O)[C@H](CC(C)C)NC(=O)[C@H](CCCNC(=N)N)NC(=O)[C@H](CCCNC(=N)N)NC(=O)[C@H](CCC(=O)O)NC(=O)[C@H](CC(=O)O)NC(=O)[C@H](CCC(N)=O)NC(=O)[C@H](CCCNC(=N)N)NC(=O)[C@H](CCCNC(=N)N)NC(=O)[C@H](CCCNC(=N)N)NC(=O)[C@H](CCC(N)=O)NC(=O)[C@H](CCCNC(=N)N)NC(=O)[C@H](CCCNC(=N)N)NC(=O)[C@H](CCCCN)NC(=O)[C@H](CCCCN)NC(=O)[C@H](CCCNC(=N)N)NC(=O)CNC(=O)[C@H](Cc1ccc(O)cc1)NC(=O)CCCC[C@@H]1SC[C@@H]2NC(=O)N[C@@H]21)C(=O)N[C@H](C(=O)N[C@@H](CC(C)C)C(=O)O)C(C)C` [Peptide 1842] (Biotin-YGRKKRRQRRRQDERRLIVL-OH): the POZ domain bound entry at RIM2 d1 is “RIM2 D1”; on ZO-1 d2 [3], “ZO-1 D2”. Also, the “ODmax (450 nm)” value was determined as 1.90 at INADL d3 [1] and 2.30 on ZO-1 d2 [2].
Regarding `CC(C)C[C@H](NC(=O)[C@H](CO)NC(=O)[C@@H](NC(=O)[C@H](CC(C)C)NC(=O)[C@H](CCCNC(=N)N)NC(=O)[C@H](CC(=O)O)NC(=O)CNC(=O)[C@H](CCCNC(=N)N)NC(=O)[C@H](C)NC(=O)[C@H](CCCNC(=N)N)NC(=O)[C@H](CCCNC(=N)N)NC(=O)[C@H](CCCNC(=N)N)NC(=O)[C@H](CCC(N)=O)NC(=O)[C@H](CCCNC(=N)N)NC(=O)[C@H](CCCNC(=N)N)NC(=O)[C@H](CCCCN)NC(=O)[C@H](CCCCN)NC(=O)[C@H](CCCNC(=N)N)NC(=O)CNC(=O)[C@H](Cc1ccc(O)cc1)NC(=O)CCCC[C@@H]1SC[C@@H]2NC(=O)N[C@@H]21)C(C)C)C(=O)O` [Peptide 1843] (Biotin-YGRKKRRQRRRARGDRLVSL-OH; C-terminus assumed), the POZ domain bound result is given as “RIM2 D1” on RIM2 d1 and “ZO-1 D2” at ZO-1 d2 [3]. Also, the “ODmax (450 nm)” value at INADL d3 [1] came to 1.20; on ZO-1 d2 [2] it was 2.20.
`CC(C)[C@H](NC(=O)[C@H](Cc1ccc(O)cc1)NC(=O)[C@H](Cc1ccc(O)cc1)NC(=O)[C@H](CCC(=O)O)NC(=O)[C@H](CCCCN)NC(=O)[C@H](CC(=O)O)NC(=O)[C@H](CCCCN)NC(=O)[C@H](CC(N)=O)NC(=O)[C@H](CCCCN)NC(=O)[C@H](CCCNC(=N)N)NC(=O)[C@H](CCCNC(=N)N)NC(=O)[C@H](CCCNC(=N)N)NC(=O)[C@H](CCC(N)=O)NC(=O)[C@H](CCCNC(=N)N)NC(=O)[C@H](CCCNC(=N)N)NC(=O)[C@H](CCCCN)NC(=O)[C@H](CCCCN)NC(=O)[C@H](CCCNC(=N)N)NC(=O)CNC(=O)[C@H](Cc1ccc(O)cc1)NC(=O)CCCC[C@@H]1SC[C@@H]2NC(=O)N[C@@H]21)C(=O)O` [Peptide 1852] (Biotin-YGRKKRRQRRRKNKDKEYYV-OH; C-terminus assumed): the POZ domain bound result on RIM2 d1 was “RIM2 D1”; on ZO-1 d2 [3], “ZO-1 D2”. The “ODmax (450 nm)” value at INADL d3 [1] was 2.40; at ZO-1 d2 [2], 2.60.
Turning to “Biotin-YGRKKRRQRRRSRTDRLEYV [Peptide 1846]”, the POZ domain bound entry on RIM2 d1 was “RIM2 D1”. At INADL d3 [1], the “ODmax (450 nm)” value is reported as 1.50.
